# According to publication PMC10157211, “Four new suomilides isolated from the cyanobacterium Nostoc sp. KVJ20 and proposal of their biosynthetic origin” (Frontiers in Microbiology, 2023):
# Assays:
# trypsin-1 = settings: ref Ahmed et al., 2021; read-out: IC50 trypsin-1 inhibition; cited from earlier work
# From the text: (§1) Compounds 5 and 6 were originally isolated via bioassay guided purification using a serine-protease inhibition assay when they were discovered in 2005 ([Pluotno and Carmeli, 2005]). The two banyasides were reported to inhibit the catalytic activity of trypsin. As far as we know, anti-bacterial activity of suomilide have not been reported previously, and the Nostoc sp. strain it has been isolated from was reported as non-toxic. This complies with our results, as no activity could be detected for 1–4 against bacteria or cell lines at high concentrations. Suomilide A has recently been investigate ...
# prostate cancer cells = settings: concentration of 3.3 μM; ref Ahmed et al., 2021; cited from earlier work
# From the text: as §1
# trypsin-3 = settings: ref Ahmed et al., 2021, cited from earlier work
# From the text: as §1
# trypsin-2 = settings: ref Ahmed et al., 2021; read-out: IC50 trypsin-2 inhibition; cited from earlier work
# From the text: as §1
# [1] = system: cancer cell proliferation; settings: ref Ahmed et al., 2021; cited from earlier work
# From the text: as §1
# trypsin = settings: ref Pluotno and Carmeli, 2005; cited from earlier work
# From the text: as §1
# [2] = Dissolution of isolated fractions in solvent; format: physicochemical
# Procedure: Compounds 1–4 were isolated using mass-guided fractionation on preparative HPLC from 29.4 g dry mass of lyophilizated cyanobacteria from 10 L of culture. For the first purification step, the compounds were separated using a C18 reversed phase column. The collected fractions were reduced to dryness at 40°C in vacuo. […] The yields were: 1: 9.8 mg; 2: 4.1 mg; 3: 5.9 mg; 4: 2.6 mg.
substance,measurement,setting,value
suomilide [Suomilide A],IC50,trypsin-1,0.104 µM
same,inhibition of invasion of prostate cancer cells,prostate cancer cells,inhibit the invasion
same,IC50,trypsin-3; read-out: IC50 trypsin-3 inhibition,0.0115 µM
same,residence time,trypsin-3; surface plasmon resonance spectroscopy,57 min
same,IC50,trypsin-2,0.0047 µM
same,effect on cancer cell proliferation,[1],no effect
banyaside A [Compound 5],inhibition of the catalytic activity of trypsin,trypsin,inhibit
Suomilide B [Compound 1],solubility in DMSO (qualitative),"[2]; dried HPLC fraction dissolved in DMSO, after extensive shaking",well
same,solubility in methanol (qualitative),[2]; dried HPLC fraction dissolved in methanol,dissolved poorly
banyaside B [Compound 6],inhibition of the catalytic activity of trypsin,trypsin,inhibit
